Assay results: PubChem BioAssay (NCI)
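Five compound concentrations were applied to cells in 96-well plates for 48 hours; endpoints were derived by simple linear interpolation of the resulting dose-response curve. GI50: concentration for 50% inhibition of growth. TGI: concentration producing complete growth inhibition.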

Tests used:
Experiment in all cases: NCI anticancer screen, dose series, 48 h
[1] = test system: HT29 colon
[2] = test system: NCI-H460 lung
[3] = test system: OVCAR-4 ovarian
[4] = test system: RXF 393 renal
[5] = test system: SK-MEL-2 melanoma
[6] = test system: SK-MEL-5 melanoma
[7] = test system: SK-OV-3 ovarian
[8] = test system: UO-31 renal
[9] = test system: BT-549 breast
[10] = test system: NCI/ADR-RES ovarian

Compound: C[C@H](O)C(=O)SC[C@H](NC(=O)CC[C@@H](N)C(=O)O)C(=O)NCC(=O)O
- TGI [1]: > 100 µM
- TGI [2]: > 100 µM
- TGI [3]: > 100 µM
- TGI [4]: > 100 µM
- TGI [5]: > 100 µM
- TGI [6]: > 100 µM
- TGI [7]: > 100 µM
- TGI [8]: > 100 µM

Compound: COc1cc(NCc2ccc3n2-c2ccccc2OC3)cc(OC)c1OC
- TGI [9]: 67.3 µM
- TGI [1]: > 100 µM
- TGI [2]: > 100 µM
- TGI [10]: 22.5 µM
- TGI [3]: 55.5 µM
- TGI [4]: 87.5 µM
- TGI [5]: 69.2 µM
- TGI [6]: 32.3 µM
- TGI [8]: 60 µM

Compound: CC(O)=NC(Cc1ccc2ccccc2c1)C(O)=NC(Cc1ccc(Cl)cc1)C(O)=NC(Cc1c[nH]c2ccccc12)C(O)=NC(CO)C(O)=NC(Cc1ccc(O)cc1)C(O)=NC(CCCN=C(N)N)C(O)=NC(CC(C)C)C(O)=NC(CCCN=C(N)N)C(=O)N1CCCC1C(O)=NC(C)C(=N)O (configuration not stated)
- TGI [9]: > 100 µM
- TGI [1]: > 100 µM
- TGI [2]: > 100 µM
- TGI [10]: > 100 µM
- TGI [3]: > 100 µM
- TGI [4]: 92.2 µM
- TGI [5]: 90.9 µM
- TGI [6]: > 100 µM
- TGI [7]: 72.3 µM
- TGI [8]: 63.1 µM

Compound: COc1ccc2c(c1)CC[C@@H]1[C@@H]2CC[C@]2(C)[C@@H](O)/C(=C/c3ccncc3)C[C@@H]12
- TGI [9]: 31.6 µM
- TGI [1]: 15 µM
- TGI [2]: 27.3 µM
- TGI [10]: 37.2 µM
- TGI [3]: > 100 µM
- TGI [4]: 17.9 µM
- TGI [5]: 31.1 µM
- TGI [6]: 21.4 µM
- TGI [7]: 49.4 µM
- TGI [8]: 31.5 µM

Compound: CCOc1ccc2c(c1)NC(=O)C(C1OC(c3ccccc3)=CC1=O)S2 (configuration not stated)
- TGI [9]: 65.9 µM
- TGI [1]: 39.6 µM
- TGI [2]: 39 µM
- TGI [10]: 67.1 µM
- TGI [4]: 42.8 µM
- TGI [5]: > 100 µM
- TGI [6]: 39.2 µM
- TGI [7]: 52.8 µM
- TGI [8]: 90.3 µM

Compound: CCOC(=O)[C@H]1C[C@]23CN(C(=O)OC(C)(C)C)CC[C@H]2CCC2(SCCCS2)[C@@H]3N1C
- TGI [9]: > 100 µM
- TGI [1]: 53.3 µM
- TGI [2]: > 100 µM
- TGI [10]: > 100 µM
- TGI [3]: 74.2 µM
- TGI [4]: 99.7 µM
- TGI [5]: 63.3 µM
- TGI [6]: 37.4 µM
- TGI [7]: > 100 µM
- TGI [8]: > 100 µM

Compound: Cc1cc(-c2nc3cc(F)ccc3s2)ccc1NC(=O)C(C)N (configuration not stated)
- TGI [9]: 8.49 µM
- TGI [1]: 8.04 µM
- TGI [2]: 5.98 µM
- TGI [10]: 10.2 µM
- TGI [3]: 8.18 µM
- TGI [4]: 8.33 µM
- TGI [5]: 7.87 µM
- TGI [6]: 13.6 µM
- TGI [7]: 8.84 µM
- TGI [8]: 7.05 µM

Compound: C[n+]1c(-c2ccc(/C=N\NC(=O)c3ccc(C(=O)N/N=C/c4ccc(-c5cn6ccsc6[n+]5C)cc4)cc3)cc2)cn2ccsc21
- TGI [9]: 42.7 µM
- TGI [1]: 36 µM
- TGI [2]: 42.1 µM
- TGI [10]: 41.1 µM
- TGI [3]: 57.8 µM
- TGI [4]: 53.5 µM
- TGI [5]: 75.6 µM
- TGI [6]: 34 µM
- TGI [7]: 74.6 µM
- TGI [8]: 32.3 µM

Compound: COc1c2ccoc2c(S(=O)(=O)Nc2ccc(Cl)cc2)c2oc(C)cc(=O)c12
- TGI [1]: > 100 µM
- TGI [2]: > 100 µM
- TGI [10]: > 100 µM
- TGI [3]: > 67.2 µM
- TGI [4]: > 89.1 µM
- TGI [5]: > 100 µM
- TGI [6]: > 100 µM
- TGI [7]: > 100 µM
- TGI [8]: > 100 µM

Compound: CCOc1cc(NC(C)=O)ccc1C(=O)NN1C(=O)CSC1c1ccc(O)c(OC)c1 (configuration not stated)
- TGI [9]: 98.6 µM
- TGI [1]: > 100 µM
- TGI [2]: > 100 µM
- TGI [10]: > 100 µM
- TGI [3]: > 100 µM
- TGI [4]: > 100 µM
- TGI [5]: > 100 µM
- TGI [6]: > 100 µM
- TGI [7]: > 100 µM
- TGI [8]: 29.5 µM

Compound: O=C1N[C@@H]2c3c(Br)sc(Br)c3C(=O)[C@@H]2N1
- TGI [9]: 53 µM
- TGI [1]: 9.01 µM
- TGI [2]: 18.3 µM
- TGI [10]: > 70.6 µM
- TGI [3]: 16.8 µM
- TGI [4]: 14.3 µM
- TGI [5]: 13.7 µM
- TGI [6]: 23.9 µM
- TGI [7]: 27.1 µM
- TGI [8]: 9.93 µM

Compound: CN(C)CCC(C(=O)C(C)(C)C)c1ccccn1 (configuration not stated)
- TGI [9]: > 100 µM
- TGI [1]: > 100 µM
- TGI [2]: > 100 µM
- TGI [10]: > 100 µM
- TGI [3]: > 100 µM
- TGI [4]: > 100 µM
- TGI [5]: > 100 µM
- TGI [6]: > 100 µM
- TGI [7]: > 100 µM
- TGI [8]: > 100 µM

Compound: O=C(Nc1ccc(F)cc1)c1cc2ccc(O)cc2oc1=Nc1ccccc1F
- TGI [9]: 43.5 µM
- TGI [1]: > 100 µM
- TGI [2]: > 100 µM
- TGI [10]: 51.8 µM
- TGI [3]: > 100 µM
- TGI [5]: > 100 µM
- TGI [6]: 35.2 µM
- TGI [7]: 67.1 µM

Compound: C=C1C(=O)OC2/C=C(\C)CC(O)/C=C(/CO)CC(OC(=O)/C(C)=C/C)C12 (configuration not stated)
- TGI [1]: 303 µM
- TGI [2]: 168 µM
- TGI [10]: 538 µM
- TGI [3]: 319 µM
- TGI [4]: 44.5 µM
- TGI [5]: 344 µM
- TGI [6]: 44.1 µM
- TGI [7]: 309 µM
- TGI [8]: 439 µM

Compound: CCCCOc1ccc(S(=O)(=O)/N=C(\NN)Nc2ccc(Cl)cc2)cc1
- TGI [9]: > 100 µM
- TGI [1]: 48.9 µM
- TGI [2]: 31.9 µM
- TGI [10]: 76.3 µM
- TGI [3]: 45.3 µM
- TGI [4]: 36.2 µM
- TGI [5]: > 100 µM
- TGI [6]: > 100 µM
- TGI [7]: 67.4 µM
- TGI [8]: 37.5 µM

Compound: C[C@]12CC[C@H](O)CC1=CC[C@@H]1[C@@H]2CC[C@]2(C)C(=O)CC[C@@H]12
- TGI [9]: > 100 µM
- TGI [1]: > 100 µM
- TGI [10]: > 100 µM
- TGI [3]: > 100 µM
- TGI [4]: > 100 µM
- TGI [5]: > 100 µM
- TGI [6]: > 100 µM
- TGI [7]: > 100 µM
- TGI [8]: > 100 µM

Compound: NC1=NS(=O)(=O)Nc2nc(-c3cccs3)[nH]c21
- TGI [1]: > 100 µM
- TGI [2]: > 100 µM
- TGI [3]: > 100 µM
- TGI [4]: > 100 µM
- TGI [5]: > 100 µM
- TGI [6]: > 100 µM
- TGI [7]: > 100 µM
- TGI [8]: > 100 µM

Compound: Cc1onc(-c2c(F)cccc2Cl)c1C(=O)N[C@@H]1C(=O)N2[C@@H]1SC(C)(C)[C@@H]2C(=O)O
- TGI [9]: > 100 µM
- TGI [1]: > 100 µM
- TGI [2]: > 100 µM
- TGI [10]: > 100 µM
- TGI [3]: > 100 µM
- TGI [4]: > 100 µM
- TGI [5]: > 100 µM
- TGI [6]: > 100 µM
- TGI [7]: > 100 µM
- TGI [8]: 67.4 µM

Compound: FC(F)(F)C1=NC(=NNc2nnc(-c3ccccc3)c(-c3ccccc3)n2)N=C(C(F)(F)F)C1
- TGI [1]: > 100 µM
- TGI [2]: > 100 µM
- TGI [10]: > 100 µM
- TGI [3]: > 100 µM
- TGI [4]: > 100 µM
- TGI [5]: > 100 µM
- TGI [6]: > 66 µM
- TGI [7]: > 100 µM
- TGI [8]: 29.1 µM

Compound: COc1ccc(-n2cc(-c3ccc(OC)c(OC)c3)nc2SCc2ccccc2)cc1Cl
- GI50 [9]: 14.9 µM
- TGI [9]: 42.5 µM
- GI50 [1]: 17 µM
- TGI [1]: > 100 µM
- GI50 [2]: 25.5 µM
- TGI [2]: > 100 µM
- GI50 [10]: 42.7 µM
- TGI [10]: > 100 µM
- GI50 [3]: 20.1 µM
- TGI [3]: > 100 µM
- GI50 [4]: 16.9 µM
- TGI [4]: 82 µM
- GI50 [5]: 16.3 µM
- TGI [5]: 56.3 µM
- GI50 [6]: 5.78 µM
- TGI [6]: 18.6 µM
- GI50 [7]: 66.6 µM
- TGI [7]: > 100 µM
- GI50 [8]: 15.2 µM
- TGI [8]: > 100 µM

Compound: O=c1cc(-c2nc3ccccc3[nH]2)[nH]c2nc(-c3nc4ccccc4[nH]3)cc(-c3ccc(Cl)cc3)c12
- TGI [9]: > 100 µM
- TGI [1]: 42.5 µM
- TGI [2]: 43.6 µM
- TGI [10]: 91.3 µM
- TGI [3]: 95.4 µM
- TGI [4]: 35.8 µM
- TGI [5]: 30.5 µM
- TGI [6]: 30.9 µM
- TGI [7]: 46.1 µM
- TGI [8]: 33 µM

Compound: CO[C@]12C[C@H](CNC(=O)c3cc(Br)c(Br)[nH]3)O[C@H]1NC(=O)N2
- TGI [9]: > 100 µM
- TGI [1]: > 100 µM
- TGI [2]: > 100 µM
- TGI [10]: > 100 µM
- TGI [3]: > 100 µM
- TGI [5]: > 100 µM
- TGI [6]: > 100 µM
- TGI [7]: > 100 µM
- TGI [8]: > 100 µM

Compound: Cc1ccc(S(=O)(=O)NCCSS(=O)(=O)c2ccc(C)cc2)cc1
- TGI [1]: 53.4 µM
- TGI [2]: > 100 µM
- TGI [10]: 72.3 µM
- TGI [3]: > 100 µM
- TGI [4]: 99.3 µM
- TGI [6]: 43.1 µM
- TGI [7]: > 100 µM
- TGI [8]: 61.7 µM

Compound: OC1(c2ccc3ccccc3c2)c2ccc3ccccc3c2C2=NCCN21 (configuration not stated)
- TGI [9]: > 100 µM
- TGI [1]: > 100 µM
- TGI [2]: > 100 µM
- TGI [10]: > 100 µM
- TGI [3]: 85.8 µM
- TGI [4]: 98.5 µM
- TGI [5]: > 100 µM
- TGI [6]: > 100 µM
- TGI [7]: > 100 µM
- TGI [8]: > 100 µM

Compound: CC[N+](CC)(CC)/C(=N/S(=O)(=O)c1cc(C)c(Cl)cc1S)[N-]S(=O)(=O)c1ccc(Cl)cc1
- TGI [1]: > 100 µM
- TGI [2]: > 100 µM
- TGI [10]: > 100 µM
- TGI [3]: > 100 µM
- TGI [4]: > 100 µM
- TGI [5]: > 100 µM
- TGI [6]: > 100 µM
- TGI [7]: > 100 µM
- TGI [8]: > 100 µM

Compound: CCCC(=O)OCC(O)CO (configuration not stated)
- TGI [1]: > 5000 µM
- TGI [2]: > 5000 µM
- TGI [3]: > 5000 µM
- TGI [4]: > 5000 µM
- TGI [5]: > 5000 µM
- TGI [6]: > 5000 µM
- TGI [7]: > 5000 µM
- TGI [8]: > 5000 µM
